Measured values reported in PubChem BioAssay (NCI).
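The compound was tested at five concentrations on cells cultured in 96-well plates, with a 48-hour exposure period. The concentration for full growth arrest is given as TGI.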

Key:
Assay in all cases: NCI-60 cell line screen, 48 h
EKVX NSCLC = tested on: EKVX NSCLC
K-562 leukemia = tested on: K-562 leukemia
M14 melanoma = tested on: M14 melanoma
UO-31 renal = tested on: UO-31 renal
IGROV1 ovarian = tested on: IGROV1 ovarian
LOX IMVI melanoma = tested on: LOX IMVI melanoma
SN12C renal = tested on: SN12C renal
HT29 colon = tested on: HT29 colon
SK-OV-3 ovarian = tested on: SK-OV-3 ovarian
OVCAR-4 ovarian = tested on: OVCAR-4 ovarian
HOP-18 NSCLC = tested on: HOP-18 NSCLC
SK-MEL-28 melanoma = tested on: SK-MEL-28 melanoma
RXF-631 renal = tested on: RXF-631 renal
NCI-H460 lung = tested on: NCI-H460 lung
XF 498 CNS = tested on: XF 498 CNS
TK-10 renal = tested on: TK-10 renal
SNB-75 CNS = tested on: SNB-75 CNS
HCT-116 colon = tested on: HCT-116 colon
OVCAR-3 ovarian = tested on: OVCAR-3 ovarian
DMS 273 small cell lung = tested on: DMS 273 small cell lung
HL-60(TB) leukemia = tested on: HL-60(TB) leukemia
LXFL 529 NSCLC = tested on: LXFL 529 NSCLC
SF-539 CNS = tested on: SF-539 CNS
OVCAR-8 ovarian = tested on: OVCAR-8 ovarian
RPMI-8226 leukemia = tested on: RPMI-8226 leukemia
SR leukemia = tested on: SR leukemia
SF-295 CNS = tested on: SF-295 CNS
SK-MEL-2 melanoma = tested on: SK-MEL-2 melanoma
A549 NSCLC = tested on: A549 NSCLC
SNB-19 CNS = tested on: SNB-19 CNS
COLO 205 colon = tested on: COLO 205 colon
MALME-3M melanoma = tested on: MALME-3M melanoma
M19-MEL melanoma = tested on: M19-MEL melanoma
RXF 393 renal = tested on: RXF 393 renal
UACC-62 melanoma = tested on: UACC-62 melanoma
786-0 renal = tested on: 786-0 renal
U251 CNS = tested on: U251 CNS
UACC-257 melanoma = tested on: UACC-257 melanoma
HOP-62 NSCLC = tested on: HOP-62 NSCLC
HOP-92 NSCLC = tested on: HOP-92 NSCLC
SF-268 CNS = tested on: SF-268 CNS
HCC-2998 colon = tested on: HCC-2998 colon
NCI-H522 lung = tested on: NCI-H522 lung
DLD-1 colon = tested on: DLD-1 colon
SW-620 colon = tested on: SW-620 colon
OVCAR-5 ovarian = tested on: OVCAR-5 ovarian
KM20L2 colon = tested on: KM20L2 colon
SK-MEL-5 melanoma = tested on: SK-MEL-5 melanoma
DMS 114 small cell lung = tested on: DMS 114 small cell lung
CCRF-CEM leukemia = tested on: CCRF-CEM leukemia
ACHN renal = tested on: ACHN renal
NCI-H226 lung = tested on: NCI-H226 lung
KM12 colon = tested on: KM12 colon
HCT-15 colon = tested on: HCT-15 colon
MOLT-4 leukemia = tested on: MOLT-4 leukemia
NCI-H23 lung = tested on: NCI-H23 lung
CAKI-1 renal = tested on: CAKI-1 renal
SNB-78 CNS = tested on: SNB-78 CNS
A498 renal = tested on: A498 renal

Measured: TGI

CCOC(=O)C1C(=O)c2cccc(OC)c2C2COC(=O)N12 (stereo not drawn)
not listed: CAKI-1 renal | SNB-78 CNS | A498 renal
> 100 µM: all other assays above

N#CC12CC3(CCC1CCC1(C2)OCCO1)OCCO3 (stereo not drawn)
not listed: HT29 colon
> 100 µM: all other assays above

Nc1ncnc2c1ncn2COC/C=C/I
not listed: HL-60(TB) leukemia | KM20L2 colon | HCT-15 colon
> 100 µM: all other assays above

CC(=O)Nc1ccccc1S(=O)c1ccccc1 (stereo not drawn)
not listed: SR leukemia
> 100 µM: all other assays above
